# Test results: patent publication US9522192B2 (EPITECH GROUP S.r.l., priority 2012, dated 2016)
# Read-outs that look alike come from different tables or passages of the source.
# Tests used:
# [1] = tested on: carrageenan-induced hyperalgesia; assay: Mechanical hyperalgesia after λ-carrageenan injection into the paw, topical application; assay type: in vivo, mice; conditions: for anti-hyperalgesic activity (paw withdrawal latency): topical on paw, dose equimolar to 1 mg PEA/paw, evaluated 2-96 h after carrageenan; for anti-hyperalgesic effect at earlier times: 2 and 4 h after application
# Procedure: Male Swiss mice weighing 25 to 30 g were purchased from Harlan (Udine, Italy). They were housed in stainless steel cages in a room kept at 22±1° C. on a 12/12-h light/dark cycle. […] Each group of mice (n=6) was applied with 0.05 ml of ethanol solutions on dorsal surface of the left paw. After 5 minutes the animal received 50 μl of 1% λ-carrageenan in sterile saline injected into the treated paw. Absolute ethanol was used as vehicle in control animals. […] Mechanical hyperalgesia was assessed by measuring of latency (s) to withdraw the paw from a constant mechanical pressure exerted onto its dorsal surface. A 15-g calibrated glass cylindrical rod (diameter=10 mm) […] to a conical point (diameter=3 mm) was used to exert the mechanical force. The weight was suspended vertically between two rings attached to a stand and was free to move vertically. A cut off time of 90 sec. was used. Results are expressed as mean±S.E.M. of n experiments. All analyses were conducted using Graph-Pad Prism (GraphPad Software Inc., San Diego, Calif.). The significance of differences between groups was determined by Student t-test (for ex vivo experiments) and two-way analysis of variance (ANOVA) followed by Bonferroni post hoc tests for multiple comparisons (for in vivo experiments). Difference with P<0.05 (*) was considered statistically significant.
# [2] = tested on: carrageenan-induced paw oedema; assay: Carrageenan-induced paw oedema, topical application; assay type: in vivo, mice; conditions: for anti-inflammatory activity (paw volume / paw oedema): topical on paw, dose equimolar to 1 mg PEA/paw, evaluated 2-96 h after carrageenan; for anti-inflammatory effect at earlier times: 2 and 4 h after application
# Procedure: Male Swiss mice weighing 25 to 30 g were purchased from Harlan (Udine, Italy). They were housed in stainless steel cages in a room kept at 22±1° C. on a 12/12-h light/dark cycle. […] Each group of mice (n=6) was applied with 0.05 ml of ethanol solutions on dorsal surface of the left paw. After 5 minutes the animal received 50 μl of 1% λ-carrageenan in sterile saline injected into the treated paw. Absolute ethanol was used as vehicle in control animals. […] Paw oedema development was measured by a plethysmometer (Ugo Basile, Milan, Italy). The increase in paw volume was evaluated as the difference between the paw volume measured at each time point and the basal paw volume measured at time 0 (before drug application and carrageenan injection). Results are expressed as mean±S.E.M. of n experiments. All analyses were conducted using Graph-Pad Prism (GraphPad Software Inc., San Diego, Calif.). The significance of differences between groups was determined by Student t-test (for ex vivo experiments) and two-way analysis of variance (ANOVA) followed by Bonferroni post hoc tests for multiple comparisons (for in vivo experiments). Difference with P<0.05 (*) was considered statistically significant.
# [3] = mouse, in vivo
# Procedure: (§1) Frozen tissues samples were weighed and homogenized in a solution of methanol and a serine protease inhibitor, phenylmethylsulphonyl fluoride (PMSF, 1 mM). Then, homogenate tissues were subjected to methanol-chloroform-water (1:2:1, v/v/v) extraction. After centrifugation, the organic layer was carefully removed, transferred to another vial and purified by silica gel (60-Å, 230-400 mesh) micro-columns.
# (§2) Molecules of interest were isolated by small-scale chromatography. Glass microcolumns (5 cm, ø 50 mm) were used. 1 ml of a mixture (1/1 v/v) of chloroform and silica gel (0.04-0.063 mm, 230-400 mesh, Macherey-Nagel) was used to load the columns. Samples were dissolved in 1 ml of chloroform and then loaded. Columns were washed with 1 ml of chloroform and 2 ml of chloroform/methanol (9/1 v/v), thus obtaining the fractions of interest that were collected and evaporated in vacuum. The extraction method was validated in blank experiments by treating skin with a known amount of each analyzed compound. Recovery percentages were calculated as well and they resulted higher than 85% for all the tested products.
# (§3) HPLC analysis was performed on a Jasco apparatus (Jasco inc., Easton, Md., USA) composed by a quaternary gradient pump (PU 2089 Plus), a 25 μl Rheodyne injection valve and a multi-wave length UV detector (MD 2010 Plus). […] The specificity (absence of interfering peak from skin samples) was assessed as well.
# [4] = Skin accumulation and PEA release after topical application on the paw (lipid extraction, HPLC)
# Procedure: as §1, §2, §3
# [5] = Water solubility; assay type: physicochemical
# [6] = after local application, 1.72 mg/paw
# [7] = 6-96 h after topical application
# [8] = after local application, 1.6 mg/paw
compound,measurement,setting,value
"CCCCCCCCCCCCCCCC(=O)NCCOC(=O)CCC(=O)OCCOCCOCCO [derivative 8b, N-Palmitoylethanolamine-O-(succinyl(triethylene glycol))]",time from which anti-hyperalgesic activity is significant,[1]; [6],≥ 2 days
same,anti-hyperalgesic activity (paw withdrawal latency),[1],significant
same,time from which anti-inflammatory activity is significant,[2]; [6],≥ 2 days
same,anti-inflammatory activity (paw volume / paw oedema),[2],significant
same,accumulation in the skin,[3],accumulate in the skin and release PEA
"CCCCCCCCCCCCCCCC(=O)NCCO [PEA, Palmitoylethanolamide, reference compound]",anti-hyperalgesic effect at earlier times,[1],significant
same,anti-hyperalgesic effect at later times,[1]; [7],no effect
same,anti-hyperalgesic activity (paw withdrawal latency),[1],markedly reduced
same,anti-inflammatory effect at earlier times,[2],significant
same,anti-inflammatory effect at later times,[2]; [7],no effect
same,anti-inflammatory activity (paw volume / paw oedema),[2],markedly reduced
same,PEA levels in the skin,[4]; after 24 h,return to baseline
N-[2-methoxypolyethylene glycol(5000)-O-carbonyl-oxy-ethyl]-palmitamide [Example 7],Water solubility,[5],> 10 mg/mL
"CCCCCCCCCCCCCCCC(=O)NCCOC(=O)CCC(=O)OCCOCCO [derivative 8a, N-Palmitoylethanolamine-O-(succinyl(diethylene glycol))]",anti-hyperalgesic effect at earlier times,[1],No effect
same,anti-hyperalgesic activity lasting up to,[1]; [8],up to 72 h
same,anti-hyperalgesic activity (paw withdrawal latency),[1],significant
same,anti-inflammatory effect at earlier times,[2],No effect
same,anti-inflammatory activity lasting up to,[2]; [8],up to 72 h
same,anti-inflammatory activity (paw volume / paw oedema),[2],significant
same,PEA release sustained / maintained up to,[4]; after topical application,up to 72 hours
same,accumulation in the skin,[4]; after topical application,accumulate in the skin and release PEA
same,kinetic release of PEA in the skin,[4]; after topical application,faster release
same,start of PEA release (relevant amount of PEA detectable),[4]; after topical application,2 h
same,total amount accumulated in the skin (PEA+derivative) relative to PEA alone,[4]; whole period of analysis,~10 times
